# From patent US20110152166A1, “METHOD OF MODULATION OF PROTEIN PHOSPHORYLATION-DEPENDENT CONFORMATIONAL TRANSITIONS WITH LOW MOLECULAR WEIGHT COMPOUNDS” (priority 2006, published 2011)
# Tested on: GST-S6K1-T2[Thr412Glu] in HEK 293 cells
# Test: S6K activity and activation loop phosphorylation in transfected HEK 293 cells
# Type: cell-based, human
# Details: 200 μM, 90 minutes
# Description: FIG. 4—Small compounds designed to bind the HM/PIF-pocket of PDK1 can block the PDK1-dependent phosphorylation and activation of substrates that require docking to the HM/PIF-pocket of PDK1. (A) Effect of compound 1 (100 and 200 μM) on PDK1 phosphorylation of its substrate S6K1. The phosphorylation reaction was performed in vitro with [γ^32P]ATP and then separated on SDS-PAGE followed by exposure to phosphorimager. The radioactive band corresponding to phosphorylated GST-56K1-T2[Thr412Glu] (S6K[412E]) is indicated. (B) PDK1 or PDK1[Val127Leu] (PDK1[V127L]) were pre-incubated with GST-[…]N-SGK1 [Ser422Asp] […] (C) The activity of S6K was measured in vitro after glutathione sepharose purification; aliquots of purified proteins were separated on SDS-PAGE and the level of activation loop phosphorylation was visualized by immunoblotting using phospho-specific antibodies that recognize the phosphorylated activation loop, followed by stripping of the membranes and re-probing with anti-GST to verify the presence of equal amounts of protein. (D) Cells overexpressing GST-56K1-T2[Thr412Glu] were treated as in (C) but S6K activity was measured in vitro after immunoprecipitation of the GST-fusion protein with anti-GST antibodies; the level of S6K expression was analysed by western-blotting of crude extracts. […]
compound,measurement,value
O=C(O)CSC(CC(=O)c1ccc(Cl)cc1)c1ccccc1 (centres unmarked) [Compound 1],S6K1-T2[Thr412Glu] activity after cell treatment (in words),decrease
same,phosphorylation at the activation loop of S6K1-T2[Thr412Glu] (in words),decrease in the phosphorylation at the activation loop
